“And” between values parts separate entries of the source, which are not always exact repeats. Identical values can stand only once. Like-named read-outs stand apart in the source and are kept apart here.
Tests used:
clinical = conditions: human, plasma, 2.5 mg; for Cmax: n=4, mean (CV %)
[1] = cited from earlier work
[2] = for Tmax: healthy subjects n=4, median (range)

SMILES: O=C(CCCN1CCC(O)(c2ccc(Cl)cc2)CC1)c1ccc(F)cc1 [haloperidol lactate, haloperidol]
- AUC(0-inf) (clinical; both, im): 81.8 ng·h/mL
- AUC(0-t) (clinical; both, im): 59.7 ng·h/mL
- MRT (clinical; both, im): 16.1 h
- Tmax (clinical; both, im): 0.625 h
- Vd/F (clinical; both, im): 1360 L
- half-life (clinical; both, im): 28.8 h
- Cmax (clinical; both, im, IM 2.5 mg): 8.42 ng/mL
- bioavailability (clinical; both, intramuscular): 134%
- AUC(0-inf) (clinical; both, iv): 60.4 ng·h/mL
- AUC(0-t) (clinical; both, iv): 50.8 ng·h/mL
- MRT (clinical; both, iv): 12.7 h
- Tmax (clinical; both, iv): 0.25 h
- Vd (clinical; both, iv): 934 L
- half-life (clinical; both, iv): 17.1 h
- Cmax (clinical; both, iv, IV 2.5 mg): 23.3 ng/mL
- AUC(0-inf) (clinical; both, other: intranasal): 37.9 ng·h/mL
- AUC(0-t) (clinical; both, other: intranasal): 31.7 ng·h/mL
- MRT (clinical; both, other: intranasal): 12.9 h
- Tmax (clinical; both, other: intranasal): 0.25 h
- Vd/F (clinical; both, other: intranasal): 1580 L
- bioavailability (clinical; both, other: intranasal): 63.8%
- half-life (clinical; both, other: intranasal): 16.9 h
- Cmax (clinical; both, other: intranasal, IN 2.5 mg): 9.8 ng/mL
- Tmax (clinical; im): 16 h
- time of peak plasma concentration ([1]; intramuscular administration): approximately 20 minutes
- absolute bioavailability ([1]; oral administration): approximately 65%
- Tmax ([2]; IM 2.5 mg): 0.625 (0.25-16) h
- Cmax after intranasal dose compared with intramuscular dose ([2]; IN 2.5 mg vs IM 2.5 mg): slightly higher
- Tmax ([2]; IN 2.5 mg): 0.25 (0.12-0.5) h
- Cmax, individual subjects ([2]; IN 2.5 mg, single subjects): 16.2 ng/mL and 7.5 to 7.9 ng/mL
- time at which haloperidol concentrations reached a peak, individual subjects ([2]; IN 2.5 mg, single subjects): 7.5 min and 15 min and 30 min
- half-lives, intravenous and intranasal ([2]; IV vs IN 2.5 mg): similar

— patent publication US20060039869A1, “Intranasal delivery of antipsychotic drugs” (priority 2004, published 2006)
